From US20070190582A1, “Platelet surface PF4 antigenic complexes as a diagnostic indicator in heparin-induced thrombocytopenia” (priority 2005, published 2007)

B1: heparinase 1: heparinase I (Sigma), enzyme used to pretreat platelets (protein, UniProt Q05819 22-384, looked up)
Heparin lyase I: QQKKSGNIPYRVNVQADSAKQKAIIDNKWVAVGINKPYALQYDDKLRFNGKPSYRFELKAEDNSLEGYAAGETKGRTELSYSYATTNDFKKFPPSVYQNAQKLKTVYHYGKGICEQGSSRSYTFSVYIPSSFPDNATTIFAQWHGAPSRTLVATPEGEIKTLSIEEFLALYDRMIFKKNIAHDKVEKKDKDGKITYVAGKPNGWKVEQGGYPTLAFGFSKGYFYIKANSDRQWLTDKADRNNANPENSEVMKPYSSEYKTSTIAYKMPFAQFPKDCWITFDVAIDWTKYGKEANTILKPGKLDVMMTYTKNKKPQKAHIVNQQEILIGRNDDDGYYFKFGIYRVGNSTVPVTYNLSGYSETAR

Legend:
[1] = system: hPF4/FcγRIIA double transgenic mice given KKO; assay: Therapeutic intervention in the murine HIT model (platelet counts after KKO); type: in vivo, mouse
Description: Transgenic mice expressing different amounts of hPF4 mRNA per platelet have been described previously (26). Three lines bearing 1, 6 and 22 copy numbers of the human PF4 gene/haplotype were used. […] Transgenic mice expressing FcγRIIA were generously provided by Steven McKenzie, Thomas Jefferson University (30) and crossbred with these hPF4 mice. All murine lines were backcrossed onto the C57BL/6J background>8 times. Genomic makeup of mice was determined by PCR analysis using oligonucleotide primers described previously (26,30). Controls included littermates transgenic for hPF4 or FcγRIIA only. Mice were 6-10 weeks of age at the time of study. Total platelet hPF4 levels in the various transgenic hPF4 lines were determined using an Asserachrom PF4 kit (Diagnostica Stago) as per the manufacturer using recombinant hPF4 as the standard. Mouse blood was obtained by retroorbital puncture. The plate was read at 450 nm in a THERMOmax microplate reader (Molecular Devices). Measurements of surface KKO binding in vivo in WT and the hPF4 transgenic mice were determined after IV injection of 20 μg of FITC-labeled KKO in 200 μL of sterile PBS via the tail vein followed by withdrawal of 50 μL of blood from the retroorbital plexus 10 min later. The blood was coimmunostained for CD41, and KKO binding to CD41-positive cells was estimated by flow cytometry. In other studies, KKO was injected intraperitoneally (IP) in a final volume of 200 μL diluted with sterile PBS. Porcine heparin (200 μL of 100 U/mL stock; Abbott Laboratories) was injected subcutaneously (SQ) in a subgroup of studied animals beginning at 24 hrs for 4 consecutive days. Complete blood counts were measured in 50 μl of whole blood obtained by retroorbital puncture into Safe-T-Fill® minicapillary blood collection tubes (Kabe Labortechnik). Platelets were enumerated using an automatic cell counter (HEMAVET, Drew Scientific). In the therapeutic intervention studies, either porcine heparin (100 U/kg) or protamine sulfate (2 mg/kg) were injected IV over 2 mins. KKO (200 μg) was given IP 1 hr later (zero time point). Injection of heparin or protamine was repeated 21 and 45 hr later. Blood counts were determined as above.
Platelet counts between groups were compared using the Student's t-test. Statistical analyses were performed using Graph Pad Prism (Graphpad Software). Differences were considered significant at a p value of <0.05.

[2] = target: T1, hPF4 bound to surface GAGs of murine platelets (Homo sapiens, UniProt P02776); assay: KKO binding to murine platelets in the presence of hPF4 (flow cytometry); design: species or system mouse; details: mPF4 null platelets, enzyme 0-5 U/ml, 37° C., 30 min
T1 construct: made in house; host or cells: E. coli BL21DE30 pLysS, pT7-7 plasmid
T1 sequence (P02776 32-101): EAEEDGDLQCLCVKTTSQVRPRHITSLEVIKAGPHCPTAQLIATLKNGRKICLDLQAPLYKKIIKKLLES
Description: Studies were performed using human platelets or platelets from WT and transgenic mice (see below for the description of the mice). Human blood was collected after informed consent from healthy, aspirin-free volunteers in acid citrate dextrose (ACD, pH 4.5, 10:1, vol/vol) under a protocol approved by the Institutional Review Board for Studies involving Human Subjects of the Children's Hospital of Philadelphia. All studies involving mice were approved by the same Institution's Institute Animal Care and Use Committee. Blood was centrifuged at 200 g for 15 min at room temperature (RT) to generate platelet-rich plasma (PRP). PGE1 (final concentration 1 μg/mL, Sigma) was added to the PRP to prevent spontaneous platelet activation. […] Total immunodetectable platelet hPF4 was determined using murine platelets completely deficient in murine PF4 (mPF4 null (29)). […] Autoradiograpic bands over the linear range of exposure were analyzed on a UMAX Vista-58 scanner, and the data analyzed by developing a histogram of the calculated density using the NIH program ImageJ (rsb.info.nih.gov). Total surface PF4 binding was also detected using mPF4 null platelets after paraformaldehyde crosslinking, as above. […] FITC-labeled KKO (50 μg/mL) was added for 15 min, the sample was diluted 1/10 with Tyrode's buffer and antibody binding was measured by flow cytometry as above. […]

[3] = hPF4Mid/FcγRIIA+ mice, heparin 100 U/kg or protamine sulfate 2 mg/kg IV 1 hr before 200 μg KKO IP

Molecule	Effect on KKO-induced thrombocytopenia ([1]; hPF4High/FcγRIIA+ mice, heparin 100 U/kg or protamine sulfate 2 mg/kg IV)	Platelet counts versus mice receiving antibody alone at 24 and 48 hr ([1]; hPF4High/FcγRIIA+ mice, protamine sulfate 2 mg/kg IV)	Effect on KKO-induced thrombocytopenia at 3 hr [1, 3]	Effect on KKO-induced thrombocytopenia at 24 hr [1, 3]	Platelet counts after repeat doses on the second and third days ([1]; hPF4Mid/FcγRIIA+ mice, repeat at 21 and 45 hr)	Effect of pretreating platelets on KKO binding [2]
protamine sulfate	retained its efficacy	significantly higher	prevented thrombocytopenia	decreased the severity of thrombocytopenia	maintained platelet counts above the level in mice that had received KKO alone	–
B1	–	–	–	–	–	not heparinase 1 alone (data not shown), decreased KKO binding
